The target in data set [1] is T1, OCT1*1 (Homo sapiens, UniProt O15245, L160F).
T1 construct: expressed in transfected cells; host or cells: HEK293 T-REx (Flp-In)
T1 sequence (O15245 1-554 L160F): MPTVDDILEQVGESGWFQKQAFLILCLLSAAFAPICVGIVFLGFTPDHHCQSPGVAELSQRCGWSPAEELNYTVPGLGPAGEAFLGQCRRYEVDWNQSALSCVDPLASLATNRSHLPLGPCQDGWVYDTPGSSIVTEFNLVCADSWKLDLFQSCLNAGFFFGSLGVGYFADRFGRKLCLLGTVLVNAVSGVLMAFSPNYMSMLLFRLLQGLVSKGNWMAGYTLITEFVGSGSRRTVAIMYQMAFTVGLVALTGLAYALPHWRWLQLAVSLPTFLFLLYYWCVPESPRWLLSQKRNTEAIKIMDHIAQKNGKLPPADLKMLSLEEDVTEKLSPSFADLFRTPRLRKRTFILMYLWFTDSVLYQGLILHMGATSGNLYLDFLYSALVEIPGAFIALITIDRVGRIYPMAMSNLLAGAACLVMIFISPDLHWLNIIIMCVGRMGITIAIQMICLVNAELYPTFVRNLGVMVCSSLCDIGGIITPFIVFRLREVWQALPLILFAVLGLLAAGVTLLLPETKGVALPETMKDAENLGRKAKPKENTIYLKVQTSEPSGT
Description: Inhibition by ranitidine of OCT1-mediated substrate uptake, reference allele, HEK293 cells. In kind it is cell-based. As to conditions: for inhibition at 2 min: human, HEK293 cells overexpressing OCT1*1 (reference allele); for IC50: OCT1*1, 2 min, HEK293.
Description: (§1) HEK293 or CHO cells overexpressing the human OCT1 alleles *1A (characterized by the amino acid substitution Met408Val), *1B, *1C (Phe160Leu), *1D (Pro341Leu/Met408Val), *2 (Met420del), *3 (Arg61Cys), *4 (Gly401Ser), *5 (Gly465Arg/Met420del), *6 (Cys88Arg/Met420del), *7 (Ser14Phe), *8A (Arg488Met), *8B (Arg488Met/Met408Val), *9 (Pro117Leu), *10 (Ser189Leu), *11 (Ile449Thr), *12 (Ser29Leu), or *13 (Thr245Met), the human OCT2 reference and variant alleles (Ala270Ser), human OCT3, and the control cells (transfected with the empty pcDNA5 vector) were generated by targeted chromosomal integration using the Flp-In™ System (Life Technologies, Darmstadt, Germany).
(§2) Cells were kept at 37°C and 5% CO2 in DMEM (HEK293) or RPMI (CHO), supplemented with 10% FCS, 100 U/ml penicillin, and 100 μg/ml streptomycin. Uptake experiments were performed at pH 7.4 using HBSS supplemented with 10 mM HEPES buffer (herein referred to as HBSS+). Cells were washed once with 1 ml pre-warmed HBSS+ buffer (37°C). […] Cells were washed twice with 2 ml ice-cold HBSS+ and lysed in 500 μl lysis buffer.
(§3) The intracellular concentration of MPP^+ was determined using liquid scintillation counting of radioactively labeled substrate. To this end, 400 μl cell lysate was measured with 9 ml Aquasafe Plus liquid scintillator using the Scintillation Counter LS6500 (Beckman Coulter, Krefeld, Germany). Intracellular ASP^+ concentrations were determined using fluorescence spectroscopy.
(§4) For all transport measurements, the intracellular amount of substrate was normalized to the total amount of protein of the sample as measured using the bicinchoninic acid assay [49].
(§5) For quantification of intracellular substrates, the cell debris were removed by centrifugation at 17,000 x g for 10 min. Four-hundred μl of the supernatant was evaporated to dryness under nitrogen flow at 40°C. The residue was reconstituted in 200 μl 0.1% formic acid and 10 μl were injected into the LC-MS/MS. For the LC-MS/MS analysis an API 4000™ system tandem mass spectrometer (AB SCIEX, Darmstadt, Germany) was used. Samples were separated using a Brownlee SPP RP-Amide Column (4.6x100 mm, 2.7 μm; PerkinElmer), with a SecurityGuard C18, 4x2 mm pre-column (Phenomenex, Aschaffenburg, Germany).
(§6) Nonlinear regression to the Michaelis-Menten equation was performed to determine Km and vmax using GraphPad Prism version 6 (GraphPad Software Inc., La Jolla, CA, USA). Nonlinear regression to the Hill equation v = vmin+(vmax-vmin)/1+([I]/IC50)^-Hillslope was performed to determine IC50 using SigmaPlot version 12.0 (Systat Software, San Jose, California, USA).

Data set [2] has as its target T2, OCT1*6 (Cys88Arg/Met420del) (Homo sapiens, UniProt O15245, C88R/DEL420-420/L160F).
T2 construct: expressed in transfected cells; host or cells: HEK293 T-REx (Flp-In)
T2 sequence (O15245 with tags, fused parts or gaps C88R/L160F/DEL420-420): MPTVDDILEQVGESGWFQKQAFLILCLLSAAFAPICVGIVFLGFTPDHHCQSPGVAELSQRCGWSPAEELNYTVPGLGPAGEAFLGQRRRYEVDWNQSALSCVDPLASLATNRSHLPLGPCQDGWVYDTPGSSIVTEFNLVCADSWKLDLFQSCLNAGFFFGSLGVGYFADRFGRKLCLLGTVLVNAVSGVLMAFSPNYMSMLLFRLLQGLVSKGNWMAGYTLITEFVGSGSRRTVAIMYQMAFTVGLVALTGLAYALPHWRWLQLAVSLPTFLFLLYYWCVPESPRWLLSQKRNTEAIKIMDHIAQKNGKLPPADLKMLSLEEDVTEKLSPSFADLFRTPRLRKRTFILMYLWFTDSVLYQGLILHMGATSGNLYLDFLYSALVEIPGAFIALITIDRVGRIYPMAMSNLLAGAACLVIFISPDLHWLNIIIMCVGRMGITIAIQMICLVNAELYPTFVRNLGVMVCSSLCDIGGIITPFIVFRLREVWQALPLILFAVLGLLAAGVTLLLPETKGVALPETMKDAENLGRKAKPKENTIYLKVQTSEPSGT
In words: Ranitidine uptake in HEK293 cells overexpressing OCT1*6. It is filed as in vitro ADME. Particulars: 1 μM and 10 μM ranitidine, 2 min.
Description: as §1
(§7) Six hundred thousand HEK293 or CHO cells were plated per well in 12-well plates (pre-coated with poly-D-lysine) and were grown for 48 hours to reach confluence. Cells were kept at 37°C and 5% CO2 in DMEM (HEK293) or RPMI (CHO), supplemented with 10% FCS, 100 U/ml penicillin, and 100 μg/ml streptomycin. Uptake experiments were performed at pH 7.4 using HBSS supplemented with 10 mM HEPES buffer (herein referred to as HBSS+). […]
as §4
(§8) For quantification of intracellular substrates, the cell debris were removed by centrifugation at 17,000 x g for 10 min. […]

Data set [3] deals with T3, OCT1*2 (Met420del) (Homo sapiens, UniProt O15245, DEL420-420/L160F).
T3 sequence (O15245 with tags, fused parts or gaps L160F/DEL420-420): T2 sequence (O15245 with tags, fused parts or gaps C88R/L160F/DEL420-420) with R88C
Description: Inhibition by ranitidine of OCT1-mediated substrate uptake, OCT1*2 allele, HEK293 cells. Further details: expressed in transfected cells; host or cells: HEK293 T-REx (Flp-In). It is filed as cell-based.
Description: as §1, §2, §3, §4, §5, §6

In data set [4] the target is T4, OCT2 Ser270 (Ala270Ser) (Homo sapiens, UniProt O15244).
T4 sequence (O15244 1-555): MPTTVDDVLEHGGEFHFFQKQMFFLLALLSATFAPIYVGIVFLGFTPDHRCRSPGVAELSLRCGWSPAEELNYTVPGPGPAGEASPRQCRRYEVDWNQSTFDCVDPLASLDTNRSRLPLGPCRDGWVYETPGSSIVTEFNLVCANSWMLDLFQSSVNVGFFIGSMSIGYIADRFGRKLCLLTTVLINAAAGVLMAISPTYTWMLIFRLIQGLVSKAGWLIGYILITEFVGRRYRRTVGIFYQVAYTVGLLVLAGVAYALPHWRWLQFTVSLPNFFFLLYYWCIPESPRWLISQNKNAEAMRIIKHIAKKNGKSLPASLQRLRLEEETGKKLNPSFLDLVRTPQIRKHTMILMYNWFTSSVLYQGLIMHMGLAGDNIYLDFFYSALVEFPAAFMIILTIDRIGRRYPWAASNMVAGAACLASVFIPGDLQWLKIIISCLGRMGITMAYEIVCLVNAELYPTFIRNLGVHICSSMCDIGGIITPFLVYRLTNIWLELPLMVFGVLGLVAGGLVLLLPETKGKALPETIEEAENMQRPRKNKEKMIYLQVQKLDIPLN
Description: Ranitidine uptake in HEK293 cells overexpressing OCT2 variant (Ser270). In kind it is in vitro ADME. As to conditions: 1 μM ranitidine, 2 min, not significant.
Description: as §1, §7, §4, §8

For data set [5] the following is noted: physiological pH of 7.4; no reference given; cited from earlier work.
Data set [6] in a line: Estimated ranitidine concentrations in portal vein and gastrointestinal tract. Details: species or system human. Particulars: highest clinical dose (300 mg) in a volume of 250 ml.
Description: The concentrations were chosen to be representative for the maximal unbound plasma (Cmax) and the estimated maximal unbound portal vein concentration (Cmax port).

SMILES strings stand for the structures. Substitutions are numbered along the chain they refer to. Entries after “also recorded” stand apart in the source; their conditions may differ. Where two headings read alike, the source gives them in different places.

For the compound `CNC(=C[N+](=O)[O-])NCCSCc1ccc(CN(C)C)o1` [ranitidine, Ranitidine], the “induction of morphine uptake” value in data set [1] (at Cmax of ranitidine, reference allele only, not in OCT1*2) was found to be 41%. The inhibition – broadly, the drop in the measured response relative to a control, in per cent – at 2 min in data set [1] (pH 7.4, probe metformin (100 μM), read-out: inhibition of metformin uptake) is 50%; in data set [1] (pH 7.4, high concentrations expected in the gastrointestinal tract, all substrates tested, reference allele, read-out: inhibition of substrate uptake), more than 70%; in data set [3] (human, HEK293 cells overexpressing OCT1*2 (Met420del), pH 7.4, probe metformin (100 μM), read-out: inhibition of metformin uptake), 50%; in data set [3] (human, HEK293 cells overexpressing OCT1*2 (Met420del), pH 7.4, probe morphine (0.1 μM), read-out: inhibition of morphine uptake), not above 30%; in data set [3] (human, HEK293 cells overexpressing OCT1*2 (Met420del), pH 7.4, high concentrations expected in the gastrointestinal tract, all substrates tested, OCT1*2, read-out: inhibition of substrate uptake), more than 70%. For the same compound, the concentration for half-maximal inhibition (IC50) (as a rule, the concentration at which inhibition is half-maximal) in data set [1] (substrate 0.1 μM MPP+) was found to be 81.9 µM; in data set [1] (substrate 0.1 μM morphine), 45.5 ± 5.49 µM; in data set [1] (substrate 1 μM ASP+) it was 337 µM; in data set [1] (substrate 100 μM metformin) it was 20.9 µM; in data set [3] (substrate 0.1 μM MPP+, OCT1*2, 2 min, HEK293), 34.4 µM; in data set [3] (substrate 0.1 μM morphine, OCT1*2, 2 min, HEK293), 19.5 µM. Moreover, the IC50 in data set [3] (substrate 1 μM ASP+, OCT1*2, 2 min, HEK293) stood at 155 µM. The ranitidine transport activity result in data set [2] was “completely lacked ranitidine uptake; also recorded: complete lack of ranitidine transport activity”. The IC50 at 2 min in data set [3] (human, HEK293 cells overexpressing OCT1*2 (Met420del), pH 7.4, probe metformin (100 μM), substrate 100 μM metformin, OCT1*2, 2 min, HEK293) was found to be 14.8 µM. Besides, the “reduction of ranitidine uptake, Ser270 allele in comparison to the Ala270 allele” value in data set [4] is recorded as 9%. Besides, in data set [5], the “ranitidine molecules that are positively charged organic cations” value is given as 86%. The “[I]2, theoretical maximal gastrointestinal ranitidine concentration after oral administration” value in data set [6] is 3800 µM.
